Patent US9365522B2, “Pyrazole amide derivative” (AMGEN INC., priority 2015, dated 2016)

Molecular target: T1, human RORγ-LBD (Homo sapiens, UniProt P51449)
T1 construct: made in house; host or cells: E. coli (BL-21)
T1 sequence (P51449 262-518): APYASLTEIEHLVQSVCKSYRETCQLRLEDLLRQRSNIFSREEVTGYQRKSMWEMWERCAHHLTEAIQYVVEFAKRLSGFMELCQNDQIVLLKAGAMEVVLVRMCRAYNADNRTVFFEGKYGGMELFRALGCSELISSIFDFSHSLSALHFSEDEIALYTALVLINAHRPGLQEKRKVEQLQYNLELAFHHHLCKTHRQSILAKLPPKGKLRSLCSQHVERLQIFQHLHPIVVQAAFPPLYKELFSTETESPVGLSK
Assay: ROR gamma coactivator peptide recruitment Alphascreen assay (RORγ-LBD binding to GRIP1 coactivator peptide)
Type: biochemical
Conditions: 5 nM human RORγ-LBD, 30 nM 7-β-hydroxycholesterol, 50 nM biotinylated GRIP1 coactivator peptide, overnight incubation at room temperature; read-out: result (pIC50, RORγ coactivator peptide recruitment Alphascreen assay) (converted)
In short: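 His/Flag-tagged human RORγ-LBD (aa 262-518, E. coli-expressed, 5 nM) with agonist 7-β-hydroxycholesterol (30 nM) and biotinylated GRIP1 LXXLL peptide (50 nM) in HEPES pH 7.4 buffer, 2.5% DMSO. Compound 1-in-2 dilutions; Alphascreen bead signal read after overnight incubation at room temperature; pIC50 calculated.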

Row | Compound | IC50 [nM]
1 | CC1(C)CC[C@H]1N(CC(=O)c1c(Cl)cccc1Cl)C(=O)c1cnn([C@H]2CC[C@@H](C(=O)O)CC2)c1C(F)(F)F [Example 636, cis-4-(4-((2-(2,6-dichlorophenyl)-2-oxoethyl)((1R)-2,2-dimethylcyclobutyl)carbamoyl)-5-(trifluoromethyl)-1H-pyrazol-1-yl)cyclohexanecarboxylic acid] | 132
2 | COC1(CN(CC(=O)c2c(Cl)cncc2Cl)C(=O)c2cnn([C@H]3CC[C@](C)(C(=O)O)CC3)c2C(F)(F)F)CCCC1 [Example 638, trans-4-(4-((2-(3,5-dichloro-4-pyridinyl)-2-oxoethyl)((1-methoxycyclopentyl)methyl)carbamoyl)-5-(trifluoromethyl)-1H-pyrazol-1-yl)-1-methylcyclohexanecarboxylic acid] | 15.5
3 | C[C@]1(C(=O)O)CC[C@H](n2ncc(C(=O)N(CC(=O)c3c(F)cccc3Cl)CC3(F)CCCC3)c2C(F)(F)F)CC1 [Example 643, trans-4-(4-((2-(2-chloro-6-fluorophenyl)-2-oxoethyl)((1-fluorocyclopentyl)methyl)carbamoyl)-5-(trifluoromethyl)-1H-pyrazol-1-yl)-1-methylcyclohexanecarboxylic acid] | 4.27
4 | CCC(CC)(CC)CN(CC(=O)c1c(Cl)cncc1Cl)C(=O)c1cnn([C@H]2CC[C@](C)(C(=O)O)CC2)c1C(F)(F)F [Example 644, trans-4-(4-((2-(3,5-dichloro-4-pyridinyl)-2-oxoethyl)(2,2-diethylbutyl)carbamoyl)-5-(trifluoromethyl)-1H-pyrazol-1-yl)-1-methylcyclohexanecarboxylic acid] | 3.98
5 | C[C@]1(C(=O)O)CC[C@H](n2ncc(C(=O)N(CC(=O)c3c(Cl)cccc3Cl)[C@H]3CCC34CCCC4)c2C(F)(F)F)CC1 [Example 649, trans-4-(4-((2-(2,6-dichlorophenyl)-2-oxoethyl)((1S)-spiro[3.4]oct-1-yl)carbamoyl)-5-(trifluoromethyl)-1H-pyrazol-1-yl)-1-methylcyclohexanecarboxylic acid] | 1.82
6 | C[C@]1(C(=O)O)CC[C@H](n2ncc(C(=O)N(CC(=O)c3c(Cl)cccc3Cl)[C@@H]3CCC34CCCC4)c2C(F)(F)F)CC1 [Example 650, trans-4-(4-((2-(2,6-dichlorophenyl)-2-oxoethyl)((1R)-spiro[3.4]oct-1-yl)carbamoyl)-5-(trifluoromethyl)-1H-pyrazol-1-yl)-1-methylcyclohexanecarboxylic acid] | 7.94
7 | C[C@]1(C(=O)O)CC[C@H](n2ncc(C(=O)N(CC(=O)c3c(Cl)cccc3Cl)[C@H]3CCOC4(CCC4)C3)c2C(F)(F)F)CC1 [Example 653, trans-4-(4-((2-(2,6-dichlorophenyl)-2-oxoethyl)((8S)-5-oxaspiro[3.5]non-8-yl)carbamoyl)-5-(trifluoromethyl)-1H-pyrazol-1-yl)-1-methylcyclohexanecarboxylic acid] | 70.8
8 | CC1(C)CC[C@H](CN(CC(=O)c2c(Cl)cncc2Cl)C(=O)c2cnn([C@H]3CC[C@](C)(C(=O)O)CC3)c2C(F)(F)F)O1 [Example 655, trans-4-(4-((2-(3,5-dichloro-4-pyridinyl)-2-oxoethyl)(((2R)-5,5-dimethyltetrahydro-2-furanyl)methyl)carbamoyl)-5-(trifluoromethyl)-1H-pyrazol-1-yl)-1-methylcyclohexanecarboxylic acid] | 26.9
9 | CC1(C)C[C@@H]1N(CC(=O)c1c(Cl)cncc1Cl)C(=O)c1cnn([C@H]2CC[C@H](C(=O)O)CC2)c1C(F)(F)F [Example 656, trans-4-(4-((2-(3,5-dichloro-4-pyridinyl)-2-oxoethyl)((1S)-2,2-dimethylcyclopropyl)carbamoyl)-5-(trifluoromethyl)-1H-pyrazol-1-yl)cyclohexanecarboxylic acid] | 186
10 | CCC(C)(C)CN(CC(=O)c1c(F)cccc1Cl)C(=O)c1cnn([C@H]2CC[C@](C)(C(=O)O)CC2)c1C(F)(F)F [Example 657, trans-4-(4-((2-(2-chloro-6-fluorophenyl)-2-oxoethyl)(2,2-dimethylbutyl)carbamoyl)-5-(trifluoromethyl)-1H-pyrazol-1-yl)-1-methylcyclohexanecarboxylic acid] | 2.24

The next lines start with the values.

Row | IC50 [nM] | Compound
11 | 8.13 | C[C@]1(C(=O)O)CC[C@H](n2ncc(C(=O)N(CC(=O)c3c(Cl)cncc3Cl)C3CC4(CCC4)C3)c2C(F)(F)F)CC1 [Example 633, trans-4-(4-((2-(3,5-dichloro-4-pyridinyl)-2-oxoethyl)(spiro[3.3]hept-2-yl)carbamoyl)-5-(trifluoromethyl)-1H-pyrazol-1-yl)-1-methylcyclohexanecarboxylic acid]
12 | 871 | CC1(C)CC[C@H]1N(CC(=O)c1c(Cl)cncc1Cl)C(=O)c1cnn([C@H]2CC[C@@H](C(=O)O)CC2)c1C(F)(F)F [Example 634, cis-4-(4-((2-(3,5-dichloro-4-pyridinyl)-2-oxoethyl)((1R)-2,2-dimethylcyclobutyl)carbamoyl)-5-(trifluoromethyl)-1H-pyrazol-1-yl)cyclohexanecarboxylic acid]
13 | 324 | CC1(C)CC[C@@H]1N(CC(=O)c1c(Cl)cncc1Cl)C(=O)c1cnn([C@H]2CC[C@@H](C(=O)O)CC2)c1C(F)(F)F [Example 635, cis-4-(4-((2-(3,5-dichloro-4-pyridinyl)-2-oxoethyl)((1S)-2,2-dimethylcyclobutyl)carbamoyl)-5-(trifluoromethyl)-1H-pyrazol-1-yl)cyclohexanecarboxylic acid]
14 | 724 | CC1(C)CC[C@@H]1N(CC(=O)c1c(Cl)cccc1Cl)C(=O)c1cnn([C@H]2CC[C@@H](C(=O)O)CC2)c1C(F)(F)F [Example 637, cis-4-(4-((2-(2,6-dichlorophenyl)-2-oxoethyl)((1S)-2,2-dimethylcyclobutyl)carbamoyl)-5-(trifluoromethyl)-1H-pyrazol-1-yl)cyclohexanecarboxylic acid]
15 | 57.5 | C[C@]1(C(=O)O)CC[C@H](n2ncc(C(=O)N(CC(=O)c3c(Cl)cccc3Cl)[C@@H]3CCC34CCC4)c2C(F)(F)F)CC1 [Example 639, trans-4-(4-((2-(2,6-dichlorophenyl)-2-oxoethyl)((1R)-spiro[3.3]hept-1-yl)carbamoyl)-5-(trifluoromethyl)-1H-pyrazol-1-yl)-1-methylcyclohexanecarboxylic acid]
16 | 776 | O=C(CN(C(=O)c1cnn([C@H]2CC[C@@H](C(=O)O)CC2)c1C(F)(F)F)[C@@H]1CCC12CCC2)c1c(Cl)cccc1Cl [Example 640, cis-4-(4-((2-(2,6-dichlorophenyl)-2-oxoethyl)((1R)-spiro[3.3]hept-1-yl)carbamoyl)-5-(trifluoromethyl)-1H-pyrazol-1-yl)cyclohexanecarboxylic acid]
17 | 2.14 | C[C@]1(C(=O)O)CC[C@H](n2ncc(C(=O)N(CC(=O)c3c(Cl)cccc3Cl)[C@H]3CCC34CCC4)c2C(F)(F)F)CC1 [Example 641, trans-4-(4-((2-(2,6-dichlorophenyl)-2-oxoethyl)((1S)-spiro[3.3]hept-1-yl)carbamoyl)-5-(trifluoromethyl)-1H-pyrazol-1-yl)-1-methylcyclohexanecarboxylic acid]
18 | 24 | O=C(CN(C(=O)c1cnn([C@H]2CC[C@@H](C(=O)O)CC2)c1C(F)(F)F)[C@H]1CCC12CCC2)c1c(Cl)cccc1Cl [Example 642, cis-4-(4-((2-(2,6-dichlorophenyl)-2-oxoethyl)((1S)-spiro[3.3]hept-1-yl)carbamoyl)-5-(trifluoromethyl)-1H-pyrazol-1-yl)cyclohexanecarboxylic acid]
19 | 13.8 | COC1(CN(CC(=O)c2c(Cl)cncc2Cl)C(=O)c2cnn([C@H]3CC[C@](C)(C(=O)O)CC3)c2C(F)(F)F)CCCCC1 [Example 645, trans-4-(4-((2-(3,5-dichloro-4-pyridinyl)-2-oxoethyl)((1-methoxycyclohexyl)methyl)carbamoyl)-5-(trifluoromethyl)-1H-pyrazol-1-yl)1-methylcyclohexanecarboxylic acid]
20 | 295 | COC1(CN(CC(=O)c2c(Cl)cncc2Cl)C(=O)c2cnn([C@H]3CC[C@@H](C(=O)O)CC3)c2C(F)(F)F)CCCC1 [Example 646, cis-4-(4-((2-(3,5-dichloro-4-pyridinyl)-2-oxoethyl)((1-methoxycyclopentyl)methyl)carbamoyl)-5-(trifluoromethyl)-1H-pyrazol-1-yl)cyclohexanecarboxylic acid]
21 | 32.4 | CC1(C)C[C@H]1N(CC(=O)c1c(Cl)cncc1Cl)C(=O)c1cnn([C@H]2CC[C@](C)(C(=O)O)CC2)c1C(F)(F)F [Example 648, trans-4-(4-((2-(3,5-dichloro-4-pyridinyl)-2-oxoethyl)((1R)-2,2-dimethylcyclopropyl)carbamoyl)-5-(trifluoromethyl)-1H-pyrazol-1-yl)-1-methylcyclohexanecarboxylic acid]
22 | 4.37 | C[C@]1(C(=O)O)CC[C@H](n2ncc(C(=O)N(CC(=O)c3c(Cl)cccc3Cl)[C@@H]3CC34CCCC4)c2C(F)(F)F)CC1 [Example 652, trans-4-(4-((2-(2,6-dichlorophenyl)-2-oxoethyl)((1R)-spiro[2.4]hept-1-yl)carbamoyl)-5-(trifluoromethyl)-1H-pyrazol-1-yl)-1-methylcyclohexanecarboxylic acid]
23 | 355 | C[C@]1(C(=O)O)CC[C@H](n2ncc(C(=O)N(CC(=O)c3c(Cl)cccc3Cl)[C@@H]3CCOC4(CCC4)C3)c2C(F)(F)F)CC1 [Example 654, trans-4-(4-((2-(2,6-dichlorophenyl)-2-oxoethyl)((8R)-5-oxaspiro[3.5]non-8-yl)carbamoyl)-5-(trifluoromethyl)-1H-pyrazol-1-yl)-1-methylcyclohexanecarboxylic acid]
